Data taken from patent US20090304607A1, “Antibacterial Flavor and Fragance Composition and Halitosis-Inhibition Flavor and Fragrance Composition and Oral Care Composition Containing the Same” (TAKASAGO INTERNATIONAL CORPORATION, priority 2002, published 2009).

What was measured:
[1] = test system: volatile sulfide production from saliva; experiment: Inhibition of volatile sulfide production from saliva (anaerobic culture, FPD-GC of head space); format: cell-based; settings: saliva cultured 37° C. 3 hours under nitrogen
Experimental: A test of inhibitory activity of the fragrance materials on volatile sulfide production from saliva was carried out according to the following method. Saliva was collected in a 50 ml of sterile centrifuge tube from testee without brushing teeth in the morning between 9 to 10 o'clock, and was cooled on ice until use. Each of 2 ml of the saliva was put into sterile test tube with screw cap aseptically. Saliva only was used as control and that mixed with 20 μl of ethanol was used as reference.
After the addition of samples, the inner air was replaced nitrogen in a stream of nitrogen gas at 0.5 atm under stirring with a voltex mixer. Cultivation was carried out at 37° C. for 3 hours and cooled on ice until use. Volatile sulfides were analyzed by a gas chromatograph (FPD-GC) with a flame photometer. In this connection, the samples after the culture were stored in ice-water until their analysis.
Column: 6 m×4 mm i.d. (glass packed column) Column liquid phase: 20% DNP on 80/100 mesh Chromosorb W AW DMCS Column temperature: 100° C. Carrier gas (flow rate): N2 (40 ml/min) Injection temperature: 120° C. Detector: FPD (flame photometric detector; fitted with 393 nm filter for sulfur compound detection) Detector temperature: 150° C.
The inhibition rate of methyl mercaptan was determined according to the following equation:
Inhibition rate (%) of methyl mercaptan={(Blank−Sample)/Blank}×100
Blank and Sample in the equation represent the quantities of producing methyl mercaptan in respective cases. […]

[2] = test system: Fusobacterium nucleatum JCM 6328 (Fn-1); experiment: Bactericidal activity, CFU measuring method per Quantitative Suspension Test (EN 1276); format: cell-based; settings: for Results of Judgment 30 sec (Log decrease of number of bacteria vs control): 30 sec contact; for Results of Judgment 1 min (Log decrease of number of bacteria vs control): 1 min contact
Experimental: The strain used in the bactericidal activity was obtained from The Institute of Physical and Chemical Research which was known to be a pathogen of periodontal disease and also known to produce volatile sulfides.
Fn-1 was cultured on slants of GAM medium (Nissui Pharmaceutical Co. Ltd.) and added physical saline to make a cell suspension. In detail, to each slant cultured at 37° C. for 24 hours under an anaerobic condition using BBL gas-pack anaerobic system, 2 ml of physiological saline was added and scraped off the microbes with a transfer loop to make a cell suspension. This operation was repeated twice, and the combined suspension was centrifugalized, added again a half amount of physiological saline to the precipitate to make the suspension. The suspension was filtered through two sheets of sterile gauze to remove agar pieces and fibrous cells. The filtrate was centrifugalized again, the precipitate was re-suspended in physiological saline to use for the tests.
As for test solutions, fragrance samples were dissolved in equal weight of dimethylformamide (DMF) and were diluted with ethanol to necessary concentrations (volume/volume).
Each test solution (30 μl) was added to sterile distilled water and stirred or subjected to ultrasonic treatment to dissolve sample or to form a homogeneous suspension.
To each solution or homogeneous suspension, 333 μl of previous cell suspension of Fn-1 was added and stirred. After 30 seconds and 1 minute, each 333 μl was added to 3 ml of D/E Neutralization broth (DIFCO) (10 fold dilution), 100 fold and 1000 fold dilution liquids were made similarly. Each 50 μl of the liquid was spread on 15 ml of Trypticase soy agar plates using Autoplate 4000 (Spiral Biotec Co. Ltd., MD, USA) and were cultivated at 37° C. for 40 hours under anaerobic condition. After the cultivation, colonies were counted by Q-Count (Spiral Biotec Co. Ltd., MD, USA) to determine CFU/ml.
Suspension, as a control, consisted of 3 ml of water and 333 μl of the cell suspension, and also suspension as a reference, consisted of 3 ml of water, 30 μl of ethanol and 333 μl of the cell suspension was employed to determine CFU/ml thereof.
“30 sec” and “1 min” were shown the sampling time, and “Log inc.” was shown the mean Log value of the control.

[3] = 1000 ppm, read-out: CH3SH Inhib. %
[4] = 500 ppm, read-out: CH3SH Inhib. %
[5] = 100 ppm, read-out: CH3SH Inhib. %

With C=CCOC(=O)CCC1CCCCC1 [Allyl cyclohexylpropionate] the “CH3SH Inhib. %” value ([1]; 500 ppm) was 92%.

C=CCOC(=O)CCCCCC [Allyl enanthate] gave an inhibition at 1000 ppm [1, 3] of 100%.

For CC1(C)C[C@H]2[C@H]1CC[C@]1(C)CCC[C@@]2(O)C1 [Caryophyllene alcohol], the “CH3SH Inhib. %” value ([1]; 500 ppm) was 100%, the “Results of Judgment 30 sec (Log decrease of number of bacteria vs control)” value ([2]; 500 ppm) was 1.13 Log and the “Results of Judgment 1 min (Log decrease of number of bacteria vs control)” value ([2]; 500 ppm) was 2.25 Log.

For COC(/C=C/c1ccccc1)OC [Cinnamicaldehyde dimethyl acetal], the “CH3SH Inhib. %” value ([1]; 1000 ppm) was 100%.

O=C/C=C/c1ccccc1 [Cinnamicaldehyde] was tested, and the inhibition at 2000 ppm ([1]; 2000 ppm, read-out: CH3SH Inhib. %) was 100%, the “Results of Judgment 30 sec (Log decrease of number of bacteria vs control)” value ([2]; 2000 ppm) was over 3.42 Log and the “Results of Judgment 1 min (Log decrease of number of bacteria vs control)” value ([2]; 2000 ppm) was over 3.42 Log.

Work on CC(C)=CCCC(C)=CC=O [Citral] yielded an inhibition at 500 ppm [1, 4] of 100%.

CCCc1ccc(O)c(OC)c1 [Dihydroeugenol] was tested, and the “CH3SH Inhib. %” value ([1]; 2000 ppm) was 100%, the “Results of Judgment 30 sec (Log decrease of number of bacteria vs control)” value ([2]; 2000 ppm) was over 3.42 Log and the “Results of Judgment 1 min (Log decrease of number of bacteria vs control)” value ([2]; 2000 ppm) was over 3.42 Log.

CC(C)=CCC/C(C)=C/CCC(C)CCO (stereo not shown) [Dihydrofarnesol] was tested, and the “CH3SH Inhib. %” value ([1]; 300 ppm) was 100%, the “Results of Judgment 30 sec (Log decrease of number of bacteria vs control)” value ([2]; 300 ppm) was over 3.42 Log and the “Results of Judgment 1 min (Log decrease of number of bacteria vs control)” value ([2]; 300 ppm) was over 3.42 Log.

CCOC(=O)c1ccccc1O [Ethyl salicylate] was tested, and the inhibition at 1000 ppm [1, 3] was 100%.

With C=CCc1ccc(O)c(OC)c1 [Eugenol] the inhibition at 500 ppm [1, 4] was 100%.

With CC(C)=CCCC(C)=CCCC(C)=CCO [Farnesol] the inhibition at 100 ppm [1, 5] was 100%, the “Results of Judgment 30 sec (Log decrease of number of bacteria vs control)” value ([2]; 100 ppm) was 3.70 Log and the “Results of Judgment 1 min (Log decrease of number of bacteria vs control)” value ([2]; 100 ppm) was over 4.18 Log.

CCCCCC=O [Hexylaldehyde] was tested, and the “CH3SH Inhib. %” value ([1]; 300 ppm) was 82%.

For CC(C)c1cccc(=O)c(O)c1 [Hinokitiol], the inhibition at 1000 ppm [1, 3] was 100%, the “Results of Judgment 30 sec (Log decrease of number of bacteria vs control)” value ([2]; 1000 ppm) was over 5.24 Log and the “Results of Judgment 1 min (Log decrease of number of bacteria vs control)” value ([2]; 1000 ppm) was over 5.24 Log.

CC=Cc1ccc(O)c(OC)c1 [Isoeugenol] was tested, and the inhibition at 500 ppm [1, 4] was 100%, the “Results of Judgment 30 sec (Log decrease of number of bacteria vs control)” value ([2]; 500 ppm) was over 3.93 Log and the “Results of Judgment 1 min (Log decrease of number of bacteria vs control)” value ([2]; 500 ppm) was over 3.93 Log.

C=CC(C)(CCC=C(C)C)OC(C)=O (stereo not shown) [Linalyl acetate] showed an inhibition at 500 ppm [1, 4] of 43%.

CC1CCC(C(C)C)C(O)C1 (stereo not shown) [Menthol] gave an inhibition at 3000 ppm ([1]; 3000 ppm, read-out: CH3SH Inhib. %) of 100%.

For CC(C)[C@@H]1CC[C@@H](C)C[C@H]1OCC(O)CO (stereo partly shown) [Menthoxypropanediol], the “CH3SH Inhib. %” value ([1]; 1000 ppm) was 100%.

Work on COC(=O)c1ccccc1O [Methyl salicylate] yielded an inhibition at 1000 ppm [1, 3] of 100%.

CC1=CCC(=C(C)C)CC1 [Terpinolene] was tested, and the inhibition at 100 ppm [1, 5] was 36%, the “Results of Judgment 30 sec (Log decrease of number of bacteria vs control)” value ([2]; 100 ppm) was 1.16 Log and the “Results of Judgment 1 min (Log decrease of number of bacteria vs control)” value ([2]; 100 ppm) was 1.63 Log.

Compound Cc1ccc(C(C)C)c(O)c1 [Thymol] has an inhibition at 300 ppm ([1]; 300 ppm, read-out: CH3SH Inhib. %) of 100%.

In the case of C=C(C)[C@H]1CC=C(C)CC1 [d-Limonene], the “CH3SH Inhib. %” value ([1]; 3000 ppm) is reported as 100%, the “Results of Judgment 30 sec (Log decrease of number of bacteria vs control)” value ([2]; 500 ppm) is reported as 0.93 Log and the “Results of Judgment 1 min (Log decrease of number of bacteria vs control)” value ([2]; 500 ppm) is reported as 1.50 Log.

For COc1ccccc1C=CC=O [o-Methoxycinnamicaldehyde], the “CH3SH Inhib. %” value ([1]; 1000 ppm) was 100%, the “Results of Judgment 30 sec (Log decrease of number of bacteria vs control)” value ([2]; 1000 ppm) was 2.61 Log and the “Results of Judgment 1 min (Log decrease of number of bacteria vs control)” value ([2]; 1000 ppm) was 3.85 Log.

CCCCCC(C=O)=Cc1ccccc1 [α-Amylcinnamicaldehyde] was tested, and the “CH3SH Inhib. %” value ([1]; 500 ppm) was 99%.

In the case of C=C1CCC2CC1C2(C)C (stereo not drawn) [β-Pinene], the inhibition at 500 ppm [1, 4] is reported as 59%, the “Results of Judgment 30 sec (Log decrease of number of bacteria vs control)” value ([2]; 500 ppm) is reported as 0.71 Log and the “Results of Judgment 1 min (Log decrease of number of bacteria vs control)” value ([2]; 500 ppm) is reported as 1.12 Log.

With CCCCCCC1CCC(=O)O1 (stereo not shown) [γ-Decalactone] the “CH3SH Inhib. %” value ([1]; 100 ppm) was 59%.

With CC1=CCC(C(C)C)=CC1 [γ-Terpinene] the inhibition at 500 ppm [1, 4] was 66%, the “Results of Judgment 30 sec (Log decrease of number of bacteria vs control)” value ([2]; 500 ppm) was 0.94 Log and the “Results of Judgment 1 min (Log decrease of number of bacteria vs control)” value ([2]; 500 ppm) was 1.26 Log.

For CCCCCCCC1CCC(=O)O1 (stereo not shown) [γ-Undecalactone], the “CH3SH Inhib. %” value ([1]; 100 ppm) was 70%.

L-Carvone was tested, and the “CH3SH Inhib. %” value ([1]; 1000 ppm) was 100%.
